This is an account of results in patent US6747052B2, “Substituted indole-2-carboxylic acid benzylidene-hydrazides and analogs as activators of caspases and inducers of apoptosis and the use thereof” (Cytovia, Inc., priority 2000, dated 2004).

Experiment [1] has as its system T-47D. Kind of experiment: Caspase cascade activation (N-(Ac-DEVD)-N'-ethoxycarbonyl-R110 fluorogenic substrate) in T-47D cells. The class given is cell-based, Human. To be noted: 24 h incubation with compound; for Caspase activity Ratio (net RFU of test compound to control): 3 h substrate reading; for EC50: Homo sapiens, T47D. How it is done: (§1) Human breast cancer cell lines T-47D and ZR-75-1 were grown according to media component mixtures designated by American Type Culture Collection +10% FCS (Invitrogen Corporation, Life Technologies division), in a 5% CO2-95% humidity incubator at 37° C. T-47D and ZR-75-1 cells were maintained at a cell density between 30 and 80% confluency at a cell density of 0.1 to 0.6×10^6 cells/ml. Cells were harvested at 600×g and resuspended at 0.65×10^6 cells/ml into appropriate media +10% FCS. An aliquot of 45 μl of cells was added to a well of a 96-well microtiter plate containing 5 μl of a 10% DMSO in RPMI-1640 media solution containing 0.16 to 100 μM of 5-chloro-3-methyl-indole-2-carboxylic acid (4-nitrobenzylidene)-hydrazide (Compound A) or other test compound (0.016 to 10 μM final). An aliquot of 45 μl of cells was added to a well of a 96-well microtiter plate containing 5 μl of a 10% DMSO in RPMI-1640 media solution without test compound as the control sample. The samples were mixed by agitation and then incubated at 37° C. for 24 h in a 5% CO2-95% humidity incubator. After incubation, the samples were removed from the incubator and 50 μl of a solution containing 20 μM of N-(Ac-DEVD)-N′-ethoxycarbonyl-R110 fluorogenic substrate (Cytovia, Inc.; WO99/18856), 20% sucrose (Sigma), 20 mM DTT (Sigma), 200 mM NaCl (Sigma), 40 mM Na PIPES buffer pH 7.2 (Sigma), and 500 μg/ml lysolecithin (Calbiochem) was added. The samples were mixed by agitation and incubated at room temperature. Using a fluorescent plate reader (Model 1420 Wallac Instruments), an initial reading (T=0) was made approximately 1-2 min after addition of the substrate solution, employing excitation at 485 nm and emission at 530 nm, to determine the background fluorescence of the control sample. After the 3 h incubation, the samples were read for fluorescence as above (T=3 h).
(§2) The Relative Fluorescence Unit values (RFU) were used to calculate the sample readings as follows: RFU(T=3h)−Control RFU(T=0)=Net RFU(T=3h)
(§3) The activity of caspase cascade activation was determined by the ratio of the net RFU value for 5-chloro-3-methyl-indole-2-carboxylic acid (4-nitrobenzylidene)-hydrazide (Compound A) or other test compound to that of control samples. The EC50 (nM) was determined by a sigmoidal dose-response calculation (Prism 2.0, GraphPad Software Inc.).

The subject of experiment [2] is T-47D. As to the kind of experiment: Inhibition of cell proliferation (GI50, CellTiter 96 AQueous One) in T-47D cells. The class given is cell-based. The following applies: Homo sapiens, T47D, 48 h, read-out: GI50 (dose for 50% inhibition of cell proliferation). Here is the method: T-47D and ZR-75-1 cells were grown and harvested as in Example 1. An aliquot of 90 μl of cells (2.2×10^4 cells/ml) was added to a well of a 96-well microtiter plate containing 10 μl of a 10% DMSO in RPMI-1640 media solution containing 1 nM to 100 μM of 5-chloro-3-methyl-indole-2-carboxylic acid (4-nitrobenzylidene)-hydrazide (Compound A) or 5-chloro-3-phenyl-indole-2-carboxylic acid (4-nitrobenzylidene)-hydrazide (Compound B) (0.1 nM to 10 μM final). An aliquot of 90 μl of cells was added to a well of a 96-well microtiter plate containing 10 μl of a 10% DMSO in RPMI-1640 media solution without compound as the control sample for maximal cell proliferation (AMax). The samples were mixed by agitation and then incubated at 37° C. for 48 h in a 5% CO2-95% humidity incubator. […] Using an absorbance plate reader (Model 1420 Wallac Instruments), an initial reading (T=0) was made approximately 1-2 min after addition of the solution, employing absorbance at 490 nm. This determines the possible background absorbance of the test compounds. No absorbance for 5-chloro-3-methyl-indole-2-carboxylic acid (4-nitrobenzylidene)-hydrazide or 5-chloro-3-phenyl-indole-2-carboxylic acid (4-nitrobenzylidene)-hydrazide was found at 490 nm. After the 2-4 h incubation, the samples were read for absorbance as above (ATest). […]

The subject of the next experiment is HeLa cells. Kind of experiment: Clonogenic survival of HeLa cells. The experiment is classed as cell-based. The following applies: for IC50: Homo sapiens. Here is the method:
HeLa cells were grown according to media component mixtures designated by American Type Culture Collection +10% FCS (Invitrogen Corporation, Life Technologies division), in a 5% CO2-95% humidity incubator at 37° C. In a well of a 96 well plate, 30,000 cells were seeded and treated with testing compound at the indicated concentrations for 48 hr in a 5% CO2-95% humidity incubator at 37° C. Control wells were treated with the same amount of solvent (DMSO) as the compound samples. After the indicated treatment time, the supernatant was removed to a sterile culture tube and the wells washed with phosphate buffered saline, and the adherent cells trypsinized for 5 min. The trypsinzed cells were added to the culture supernatant, cells were collected (1,200 rpm, 10 min), washed with phosphate buffered saline, and resupended in fresh media. The cells were counted for trypan blue negative cells, and the cells diluted with fresh media to 1,000 cells/ml. To a well of a 24-well plate, 0.1 ml of the cell suspension was added along with 1 ml of fresh media (cell suspensions were passed through a 22G needle several times just before plating to form single cell suspensions). Plates are incubated in a 5% CO2-95% humidity incubator at 37° C. for 5-7 days. Colonies are counted when the sizes reached greater than 50 cells per colony. Cells are washed with phosphate buffered saline, fixed with 100% methanol for 15 min, and then stained with 0.5% gentian violet for 15 min. Colonies are rinsed with water and the colonies counted and the fraction surviving expressed as the percentage of the number of control colonies.

A further experiment has as its system ZR-75-1. Kind of experiment: Caspase cascade activation (N-(Ac-DEVD)-N'-ethoxycarbonyl-R110 fluorogenic substrate) in ZR-75-1 cells. The experiment is classed as cell-based, Human. To be noted: ZR-75-1, 24 h incubation with compound; for EC50: Homo sapiens; for Caspase activity Ratio (net RFU of test compound to control): 3 h substrate reading. How it is done:
as §1, §2, §3

Structures are written as SMILES. Where two headings read alike, the source gives them in different places.

With `O=C(NN=Cc1ccc([N+](=O)[O-])cc1)c1[nH]c2ccc(Cl)cc2c1-c1ccccc1` [Compound B, 5-chloro-3-phenyl-indole-2-carboxylic acid (4-nitrobenzylidene)-hydrazide], the “Caspase activity Ratio (net RFU of test compound to control)” value (shortened to “Caspase activity Ratio”) with T-47D [1] turned out to be 3; with ZR-75-1 it was 2.9. The EC50 (usually the midpoint of the concentration-response curve) in the experiment with T-47D [1] was 501 nM; in the experiment with ZR-75-1, 276 nM. In addition, the GI50 in the experiment with T-47D [2] stood at 100 nM. Also, in the experiment with HeLa cells (48 hr treatment), the “Increase in potency in clonogenic survival assay versus Compound A” value is on record as 10 fold. In addition, the IC50 (as a rule, the point on the concentration scale where inhibition reaches its midpoint) in the experiment on HeLa cells (48 hr treatment, read-out: IC50 of colony forming ability) is approximately 300 nM; with HeLa cells (48 h treatment, FIG. 4 legend, read-out: IC50 of colony formation), approximately 300 nM.

As to `Cc1ccc(C=NNC(=O)c2[nH]c3ccc(Cl)cc3c2C)cc1` [Example 1, 5-Chloro-3-methyl-indole-2-carboxylic Acid (4-Methylbenzylidene)-hydrazide], in the experiment on T-47D [1], the “Caspase activity Ratio” value was found to be 3.7 and the EC50 was 253 nM. In addition, in the experiment on ZR-75-1, the EC50 came out at 187 nM and the “Caspase activity Ratio” value was 2.6.

Regarding `Cc1c(C(=O)NN=Cc2ccccc2)[nH]c2ccc(Cl)cc12` [Example 2, 5-Chloro-3-methyl-indole-2-carboxylic Acid (Benzylidene)-hydrazide], the “Caspase activity Ratio” value turned out to be 5.1 in the experiment with T-47D [1] and 4.1 with ZR-75-1. For the same compound, the EC50 in the experiment with T-47D [1] stood at 4280 nM; in the experiment on ZR-75-1, 1490 nM.

With `Cc1c(C(=O)NN=Cc2ccc(N(C)C)cc2)[nH]c2ccc(Cl)cc12` [Example 3, 5-Chloro-3-methyl-indole-2-carboxylic Acid (4-Dimethylaminobenzylidene)-hydrazide], the “Caspase activity Ratio” value in the experiment with T-47D [1] came out at 6.0; in the experiment with ZR-75-1 it was 7.2. Besides, the EC50 in the experiment with T-47D [1] was 939 nM; with ZR-75-1, 449 nM.

On to `Cc1ccc(C=NNC(=O)c2[nH]c3ccc(C)cc3c2-c2ccccc2)cc1` [Example 13, 5-Methyl-3-phenyl-indole-2-carboxylic Acid (4-Methylbenzylidene)-hydrazide], for which, in the experiment on T-47D [1], the “Caspase activity Ratio” value was found to be 3.1 and the EC50 worked out at 300 nM. Moreover, in the experiment on ZR-75-1, the EC50 amounted to 100 nM and the “Caspase activity Ratio” value is reported as 7.6.

On to `Cc1ccc2[nH]c(C(=O)NN=Cc3ccc(N(C)C)cc3)c(-c3ccccc3)c2c1` [Example 14, 5-Methyl-3-phenyl-indole-2-carboxylic Acid (4-Dimethylaminobenzylidene)-hydrazide], for which, in the experiment with T-47D [1], the “Caspase activity Ratio” value is recorded as 3.5 and the EC50 stood at 2400 nM. Also, in the experiment with ZR-75-1, the EC50 worked out at 830 nM and the “Caspase activity Ratio” value worked out at 4.1.

For `Cc1c(C(=O)NN=Cc2ccc(Cl)cc2)[nH]c2ccc(Cl)cc12` [Example 21, 5-Chloro-3-methyl-indole-2-carboxylic Acid (4-Chlorobenzylidene)-hydrazide], in the experiment on T-47D [1], the “Caspase activity Ratio” value stood at 4.2 and the concentration giving a half-maximal response (EC50) is 3650 nM. In the experiment with ZR-75-1, the EC50 came to 2770 nM and the “Caspase activity Ratio” value is 3.5.
